Results from patent US9393271B2, “GHRH agonists for islet cell transplantation and function and the treatment of diabetes” (UNIVERSITY OF MIAMI, priority 2012, dated 2016).
Non-standard residues stand in square brackets, D forms with d. Residues, ends and D or L forms follow the SMILES beside them. *: point of attachment. Desaminotyrosyl = O=C(CCc1ccc(O)cc1)*; NMeY = CN[C@@H](Cc1ccc(O)cc1)C(=O)O; Nle = CCCC[C@H](N)C(=O)O; Orn = NCCC[C@H](N)C(=O)O; dAbu = CC[C@@H](N)C(=O)O; Abu = CC[C@H](N)C(=O)O; GABA = NCCCC(=O)O

Each molecule was assayed against T1, GHRH receptor (human pituitary membrane homogenates) (Homo sapiens, UniProt Q02643) (assay: GHRH receptor binding, ligand competition with 125I-labeled JV-1-42 (Table 7)). Conditions: JI-38 = 1.
T1 sequence (Q02643 23-423): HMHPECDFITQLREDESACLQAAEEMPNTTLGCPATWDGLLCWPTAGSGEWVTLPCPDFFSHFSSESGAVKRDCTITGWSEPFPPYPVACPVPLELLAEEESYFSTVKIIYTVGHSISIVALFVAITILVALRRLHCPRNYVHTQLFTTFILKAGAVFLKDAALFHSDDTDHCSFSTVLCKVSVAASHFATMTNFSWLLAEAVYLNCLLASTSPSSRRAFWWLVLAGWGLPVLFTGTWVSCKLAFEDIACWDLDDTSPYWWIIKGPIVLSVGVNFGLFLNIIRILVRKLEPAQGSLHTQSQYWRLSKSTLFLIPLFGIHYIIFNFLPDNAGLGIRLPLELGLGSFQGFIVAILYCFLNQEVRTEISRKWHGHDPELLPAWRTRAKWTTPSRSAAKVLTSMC
Set-up: Normal human pituitaries were purchased from the National Hormone and Peptide Program; tissue National Hormone and Peptide Program (A. F. Parlow, Harbor-UCLA Medical Center, Torrance, Calif.); host or cells: normal human pituitary, membrane fraction / homogenate

Relative affinitiy (Binding potency) vs JI-38 | Structure (SMILES)
3.67 | CCCC[C@H](NC(=O)[C@@H](NC(=O)[C@H](CC(=O)O)NC(=O)[C@H](CCC(N)=O)NC(=O)[C@H](CC(C)C)NC(=O)[C@H](CC(C)C)NC(=O)[C@H](CCCN)NC(=O)[C@H](CCCNC(=N)N)NC(=O)[C@H](C)NC(=O)[C@H](CO)NC(=O)[C@H](CC(C)C)NC(=O)[C@H](CCC(N)=O)NC(=O)[C@H](CC)NC(=O)[C@H](CC(C)C)NC(=O)[C@@H](NC(=O)[C@H](CCCN)NC(=O)[C@H](CCCNC(=N)N)NC(=O)[C@H](Cc1ccc(O)cc1)NC(=O)[C@H](CO)NC(=O)[C@H](CC(N)=O)NC(=O)[C@@H](NC(=O)[C@H](Cc1ccccc1)NC(=O)[C@@H](NC(=O)[C@H](C)NC(=O)[C@H](CC(=O)O)NC(=O)[C@H](CC)NC(=O)[C@H](Cc1ccc(O)cc1)NC)[C@@H](C)CC)[C@@H](C)O)C(C)C)[C@@H](C)CC)C(=O)N[C@@H](CO)C(=O)N[C@@H](CCCNC(=N)N)C(=O)NCCCC(N)=O [Peptide P-25503, [N—Me-Tyr^1, Abu^2, Orn^12, Abu^15, Orn^21, Nle^27, Gab^30]hGHRH(1-30)NH2] (H-[NMeY][Abu]DAIFTNSYR[Orn]VL[Abu]QLSAR[Orn]LLQDI[Nle]SR[GABA]-NH2)
3.02 | CCCC[C@H](NC(=O)[C@@H](NC(=O)[C@H](CC(=O)O)NC(=O)[C@H](CCC(N)=O)NC(=O)[C@H](CC(C)C)NC(=O)[C@H](CC(C)C)NC(=O)[C@H](CCCN)NC(=O)[C@H](CCCNC(=N)N)NC(=O)[C@H](C)NC(=O)[C@H](CO)NC(=O)[C@H](CC(C)C)NC(=O)[C@H](CCC(N)=O)NC(=O)[C@H](CC)NC(=O)[C@H](CC(C)C)NC(=O)[C@@H](NC(=O)[C@H](CCCN)NC(=O)[C@H](CCCNC(=N)N)NC(=O)[C@H](Cc1ccc(O)cc1)NC(=O)[C@H](CO)NC(=O)[C@H](CC(N)=O)NC(=O)[C@@H](NC(=O)[C@H](Cc1ccccc1)NC(=O)[C@@H](NC(=O)[C@H](C)NC(=O)[C@H](CC(=O)O)NC(=O)[C@@H](CC)NC(=O)CCc1ccc(O)cc1)[C@@H](C)CC)[C@@H](C)O)C(C)C)[C@@H](C)CC)C(=O)N[C@@H](CO)C(=O)N[C@@H](CCCNC(=N)N)C(=O)NCCCC(N)=O [Peptide P-25504, [Dat^1, D-Abu^2, Orn^12, Abu^15, Orn^21, Nle^27, Gab^30]hGHRH(1-30)NH2] (Desaminotyrosyl-[dAbu]DAIFTNSYR[Orn]VL[Abu]QLSAR[Orn]LLQDI[Nle]SR[GABA]-NH2)
1.30 | CCCC[C@H](NC(=O)[C@@H](NC(=O)[C@H](CC(=O)O)NC(=O)[C@H](CCC(N)=O)NC(=O)[C@H](CC(C)C)NC(=O)[C@H](CC(C)C)NC(=O)[C@H](CCCN)NC(=O)[C@H](CCCNC(=N)N)NC(=O)[C@H](C)NC(=O)[C@H](CO)NC(=O)[C@H](CC(C)C)NC(=O)[C@H](CCC(N)=O)NC(=O)[C@H](CC)NC(=O)[C@H](CC(C)C)NC(=O)[C@@H](NC(=O)[C@H](CCCN)NC(=O)[C@H](CCCNC(=N)N)NC(=O)[C@H](Cc1ccc(O)cc1)NC(=O)[C@H](CO)NC(=O)[C@H](CC(N)=O)NC(=O)[C@@H](NC(=O)[C@H](Cc1ccccc1)NC(=O)[C@@H](NC(=O)[C@H](C)NC(=O)[C@H](CC(=O)O)NC(=O)[C@@H](C)NC(=O)CCc1ccc(O)cc1)[C@@H](C)CC)[C@@H](C)O)C(C)C)[C@@H](C)CC)C(=O)N[C@@H](CC(=O)O)C(=O)N[C@@H](CCCNC(=N)N)C(=O)NC [Peptide P-27400, [Dat^1, D-Ala^2, Orn^12, Abu^15, Orn^21, Nle^27, Asp^28]hGHRH(1-29)NH—CH3] (Desaminotyrosyl-[dA]DAIFTNSYR[Orn]VL[Abu]QLSAR[Orn]LLQDI[Nle]DR-NHMe)
1.59 | CCCC[C@H](NC(=O)[C@@H](NC(=O)[C@H](CC(=O)O)NC(=O)[C@H](CCC(N)=O)NC(=O)[C@H](CC(C)C)NC(=O)[C@H](CC(C)C)NC(=O)[C@H](CCCN)NC(=O)[C@H](CCCNC(=N)N)NC(=O)[C@H](C)NC(=O)[C@H](CO)NC(=O)[C@H](CC(C)C)NC(=O)[C@H](CCC(N)=O)NC(=O)[C@H](CC)NC(=O)[C@H](CC(C)C)NC(=O)[C@@H](NC(=O)[C@H](CCCN)NC(=O)[C@H](CCCNC(=N)N)NC(=O)[C@H](Cc1ccc(O)cc1)NC(=O)[C@H](CO)NC(=O)[C@H](CCC(N)=O)NC(=O)[C@@H](NC(=O)[C@H](Cc1ccccc1)NC(=O)[C@@H](NC(=O)[C@H](C)NC(=O)[C@H](CC(=O)O)NC(=O)[C@@H](C)NC(=O)CCc1ccc(O)cc1)[C@@H](C)CC)[C@@H](C)O)C(C)C)[C@@H](C)CC)C(=O)N[C@@H](CC(=O)O)C(=O)N[C@H](CCCNC(=N)N)C(=O)NC [Peptide P-27401, [Dat^1, D-Ala^2, Gln^8, Orn^12, Abu^15, Orn^21, Nle^27, Asp^28, D-Arg^29]hGHRH(1-29)NH—CH3] (Desaminotyrosyl-[dA]DAIFTQSYR[Orn]VL[Abu]QLSAR[Orn]LLQDI[Nle]D[dR]-NHMe)
4.03 | CCCC[C@H](NC(=O)[C@@H](NC(=O)[C@H](CC(=O)O)NC(=O)[C@H](CCC(N)=O)NC(=O)[C@H](CC(C)C)NC(=O)[C@H](CC(C)C)NC(=O)[C@H](CCCN)NC(=O)[C@H](CCCNC(=N)N)NC(=O)[C@H](C)NC(=O)[C@H](CO)NC(=O)[C@H](CC(C)C)NC(=O)[C@H](CCC(N)=O)NC(=O)[C@H](CC)NC(=O)[C@H](CC(C)C)NC(=O)[C@@H](NC(=O)[C@H](CCCN)NC(=O)[C@H](CCCNC(=N)N)NC(=O)[C@H](Cc1ccc(O)cc1)NC(=O)[C@H](CO)NC(=O)[C@H](CCC(N)=O)NC(=O)[C@@H](NC(=O)[C@H](Cc1ccccc1)NC(=O)[C@@H](NC(=O)[C@H](C)NC(=O)[C@H](CC(=O)O)NC(=O)[C@H](C)NC(=O)[C@H](Cc1ccc(O)cc1)NC)[C@@H](C)CC)[C@@H](C)O)C(C)C)[C@@H](C)CC)C(=O)N[C@@H](CO)C(=O)N[C@@H](CCCNC(=N)N)C(=O)NC [Peptide P-27405, [N—Me-Tyr^1, Gln^8, Orn^12, Abu^15, Orn^21, Nle^27]hGHRH(1-29)NH—CH3] (H-[NMeY]ADAIFTQSYR[Orn]VL[Abu]QLSAR[Orn]LLQDI[Nle]SR-NHMe)
14.5 | CCCC[C@H](NC(=O)[C@@H](NC(=O)[C@H](CC(=O)O)NC(=O)[C@H](CCC(N)=O)NC(=O)[C@H](CC(C)C)NC(=O)[C@H](CC(C)C)NC(=O)[C@H](CCCN)NC(=O)[C@H](CCCNC(=N)N)NC(=O)[C@H](C)NC(=O)[C@H](CO)NC(=O)[C@H](CC(C)C)NC(=O)[C@H](CCC(N)=O)NC(=O)[C@H](CC)NC(=O)[C@H](CC(C)C)NC(=O)[C@@H](NC(=O)[C@H](CCCN)NC(=O)[C@H](CCCNC(=N)N)NC(=O)[C@H](Cc1ccc(O)cc1)NC(=O)[C@H](CO)NC(=O)[C@H](CCC(N)=O)NC(=O)[C@@H](NC(=O)[C@H](Cc1ccccc1)NC(=O)[C@@H](NC(=O)[C@H](C)NC(=O)[C@H](CC(=O)O)NC(=O)[C@H](C)NC(=O)[C@H](Cc1ccc(O)cc1)NC)[C@@H](C)CC)[C@@H](C)O)C(C)C)[C@@H](C)CC)C(=O)N[C@@H](CC(=O)O)C(=O)N[C@@H](CCCNC(=N)N)C(=O)NC [Peptide P-27406, [N—Me-Tyr^1, Gln^8, Orn^12, Abu^15, Orn^21, Nle^27, Asp^28]hGHRH(1-29)NH—CH3] (H-[NMeY]ADAIFTQSYR[Orn]VL[Abu]QLSAR[Orn]LLQDI[Nle]DR-NHMe)
1.45 | CCCC[C@H](NC(=O)[C@@H](NC(=O)[C@H](CC(=O)O)NC(=O)[C@H](CCC(N)=O)NC(=O)[C@H](CC(C)C)NC(=O)[C@H](CC(C)C)NC(=O)[C@H](CCCN)NC(=O)[C@H](CCCNC(=N)N)NC(=O)[C@H](C)NC(=O)[C@H](CO)NC(=O)[C@H](CC(C)C)NC(=O)[C@H](CCC(N)=O)NC(=O)[C@H](CC)NC(=O)[C@H](CC(C)C)NC(=O)[C@@H](NC(=O)[C@H](CCCN)NC(=O)[C@H](CCCNC(=N)N)NC(=O)[C@H](Cc1ccc(O)cc1)NC(=O)[C@H](CO)NC(=O)[C@H](CCC(N)=O)NC(=O)[C@@H](NC(=O)[C@H](Cc1ccccc1)NC(=O)[C@@H](NC(=O)[C@H](C)NC(=O)[C@H](CC(=O)O)NC(=O)[C@H](C)NC(=O)CCc1ccc(O)cc1)[C@@H](C)CC)[C@@H](C)O)C(C)C)[C@@H](C)CC)C(=O)N[C@@H](CC(=O)O)C(=O)N[C@@H](CCCNC(=N)N)C(=O)NC [Peptide P-27407, [Dat^1, Gln^8, Orn^12, Abu^15, Orn^21, Nle^27, Asp^28]hGHRH(1-29)NH—CH3] (Desaminotyrosyl-ADAIFTQSYR[Orn]VL[Abu]QLSAR[Orn]LLQDI[Nle]DR-NHMe)
7.91 | CCCC[C@H](NC(=O)[C@@H](NC(=O)[C@H](CC(=O)O)NC(=O)[C@H](CCC(N)=O)NC(=O)[C@H](CC(C)C)NC(=O)[C@H](CC(C)C)NC(=O)[C@H](CCCN)NC(=O)[C@H](CCCNC(=N)N)NC(=O)[C@H](C)NC(=O)[C@H](CO)NC(=O)[C@H](CC(C)C)NC(=O)[C@H](CCC(N)=O)NC(=O)[C@H](CC)NC(=O)[C@H](CC(C)C)NC(=O)[C@@H](NC(=O)[C@H](CCCN)NC(=O)[C@H](CCCNC(=N)N)NC(=O)[C@H](Cc1ccc(O)cc1)NC(=O)[C@H](CO)NC(=O)[C@H](CCC(N)=O)NC(=O)[C@@H](NC(=O)[C@H](Cc1ccccc1)NC(=O)[C@@H](NC(=O)[C@H](C)NC(=O)[C@H](CC(=O)O)NC(=O)[C@@H](C)NC(=O)CCc1ccc(O)cc1)[C@@H](C)CC)[C@@H](C)O)C(C)C)[C@@H](C)CC)C(=O)N[C@@H](CC(=O)O)C(=O)N[C@@H](CCCNC(=N)N)C(=O)NC [Peptide P-27408, [Dat^1, D-Ala^2, Gln^8, Orn^12, Abu^15, Orn^21, Nle^27, Asp^28]hGHRH(1-30)NH—CH3] (Desaminotyrosyl-[dA]DAIFTQSYR[Orn]VL[Abu]QLSAR[Orn]LLQDI[Nle]DR-NHMe)
